The record followed here is patent US12428626B2 (priority 2018, dated 2025).

This experiment has as its system WT MYXV. The experiment is classed as cell-based, myxoma virus.

Residues, ends and D or L forms follow the SMILES beside them. *: point of attachment. Cbz = O=C(OCc1ccccc1)*

As to “cytosine beta-D-arabinofuranoside [Cytosine arabinoside]”, the “luciferase activity emitted from infection in both cell lines” value is recorded as “did not affect luciferase activity”.
With `CC(C)C[C@@H](C=O)NC(=O)[C@H](CC(C)C)NC(=O)[C@H](CC(C)C)NC(=O)OCc1ccccc1` [MG132, Z-Leu-Leu-Leu-al] (Cbz-Leu-Leu-Leu-aldehyde), the “improved infection in SAMD9-null cells” value is “did not affect improved infection”.
Regarding Actinomycin D, the “elevated luciferase activity resulting from infecting SAMD9-null cells” value is recorded as “did not eliminate the elevated luciferase activity” and the “overall luciferase activity compared with untreated corresponding infection” value was “did reduce the overall luciferase activity”.
